Here are results for 1 substance from patent US11478440B2, “Combination of Elafibranor or derivatives thereof with an anti-NASH, anti-fibrotic or anti-cholestatic agent” (GENFIT, priority 2017, dated 2022).

One assay deals with HepG2. The experiment in a line: Intracellular lipid droplets (AdipoRed) in fat-loaded HepG2. It counts as cell-based, human. To be noted: elafibranor 10 μM alone; FFA-treated. On the procedure: The human hepatocyte carcinoma were cultured in DMEM 4.5 g/L glucose (Gibco cat #31053 that was supplemented with 10% fetal bovine serum (FBS, Gibco cat #10270), 1% penicillin/streptomycin (Gibco cat #15140), 1% MEM NEAA (Gibco cat #11140), 1% L-Glutamine (Gibco cat #25030), and 1% Sodium Pyruvate (Gibco cat #11360).
For these experiments, a checkerboard matrix was generated. ELA and component stocks were serially diluted in DMSO in 5-points series in a row (ELA) and a 11-points series in a column (component) of a 384-well plate. Subsequently, the 5×11 combination matrix was generated by 1:1 mixing of all single agent concentrations.
Oleic (#O1383) and palmitic (P0500) acids were purchased at Sigma. FFA stock solutions (100 mM) were prepared in 0.1M NaOH at 80° C. Working solutions of 4.5 mM palmitate/10% bovine serum albumin (BSA) and 9 mM oleate/10% BSA were prepared by complexing an appropriate volume of stock solution to 10% BSA (FFA-free low endotoxin; Sigma-Aldrich, Bornem, Belgium) in a 55° C. water bath (15 min). […]
To measure intracellular lipid droplets content, the cells were brought to room temperature and washed with 40 μL PBS. […] The relative fluorescence was measured (k excitation at 485 nm, k emission at 580 nm) using a fluorescence spectrometer (Spark Tecan cat #30086376 SN #1801002745). […]

The test system of assay [1] is fibrosing NASH-model of rats fed a CDAA+1% cholesterol diet. Put plainly: Chronic CDAA+1% cholesterol rat model: liver histology (picrosirius fibrosis surface, NASH lesions). The class given is in vivo, Wistar rats. As to the method:
The preventive effects of Elafibranor alone, OCA alone and the combination of both were assessed in a fibrosing NASH-model of rats fed a CDAA+1% cholesterol diet. 150-175 g male Wistar rats were fed a control (CSAA) diet, CDAA+1% cholesterol diet, or CDAA+1% cholesterol diet supplemented with Elafibranor 1, 3 and 10 mg/kg/day, OCA 10 and 30 mg/kg/day or combined drugs (Elafibranor 1, 3 and 10 mg/kg/day combined to OCA 10 mg/kg/day) for 12 weeks.
The body weight and the food intake were monitored twice per week. On the last day of treatment, rats were sacrificed after a 6 h fasting period. The liver was rapidly excised for biochemical and histological studies.
The liver slices were first fixed for 12 hours in formalin 4% solution. Then, the liver pieces were washed 30 minutes in PBS, and dehydrated in ethanol solutions (successive baths at 70, 80, 95 and 100% ethanol). The liver pieces were incubated in three different baths of Xylene (Sigma-Aldrich cat #534056), followed by two baths in liquid paraffin (56° C.). Liver pieces were then put into racks that were gently filled with HISTOWAX to completely cover the tissue.
The paraffin blocks containing the tissue pieces were removed from the racks and stored at room temperature. The liver blocks were cut into 3 μm slices.
Liver sections were deparaffinized, rehydrated and incubated for 3 minutes in Mayer's Hematoxylin (Microm, cat #F/C0303). Then, the liver sections were rinsed in water and incubated 1 minute in Eosin G (VWR, cat #1.09844.1000). Sections were rinsed in water then dehydrated, and mounted using the CV Mount medium (Leica, cat #14046430011).
Liver sections were deparaffinized, rehydrated and incubated for 15 minutes in a solution of Fast Green FCF 0.1% (Sigma-Aldrich, cat #F7258) before rinsing in a bath of 0.5% acetic acid (Panreac, cat #131008.1611). Then, the liver sections were rinsed in water and incubated 30 minutes in a solution of 0.1% sirius red (Direct Red 80, Fluka cat #43665) in saturated aqueous picric acid (Sigma-Aldrich cat #P6744). Sections were then dehydrated, and mounted using the CV Mount medium (Leica, cat #14046430011).
A technician blinded to the source of each liver specimen performed histological examinations. Virtual slides were generated using the Pannoramic 250 scanner from 3D Histech. For each animal, a score summarizing the main histological lesions of NASH was attributed according to the NASH Clinical Research Network (Kleiner 2005, Brunt 1999). Briefly, steatosis, lobular inflammation and hepatocytes ballooning were scored. The NAFLD Activity Score (NAS score) was established for each individual as the unweighted sum of the steatosis (0-3), lobular inflammation (0-3) and the ballooning (0-2) injury grading.
Using Quant Center software (3D Histech, including Pattern Quant and Histo Quant modules), collagen-stained areas were quantified. Briefly, Pattern Quant was used to detect the tissue and measure its surface. Then, Histo Quant was used to detect the stained collagen content and measure its surface, based on a color threshold method. The fibrosis area was then expressed as the percentage of the collagen surface to the whole tissue per animal.

“1-[4-methylthiophenyl]-3-[3,5-dimethyl-4-carboxydimethylmethyloxyphenyl]prop-2-en-1-one [Elafibranor]”: the “reduction of fat accumulation” value in the assay on HepG2 was found to be 20%. Moreover, in assay [1] (CDAA/chol diet rats, 12 weeks), the fibrosis development entry is given as “very significant attenuation of fibrosis development”; the “hepatocyte damage as judged by ballooning” value is recorded as “prevented or attenuated by elafibranor, in a dose-dependent manner”; the lobular inflammation entry is given as “attenuated by elafibranor in a dose-dependent manner”. For the same substance, the “Fibrosis surface, percentage over the untreated CDAA + 1% cholesterol rats” value in assay [1] (GFT505 3 mg/kg/d, OCA 10 mg/kg/d, alone or combined, 12 weeks in diet) was 34% ± 17%.
